Activity calls are given as the source filed them.
Columns and labels:
[1] = tested on: U-251; assay: Growth inhibition of human U251 cells at 10 uM after 48 hrs; format: functional
[2] = tested on: NCI-H226; assay: Growth inhibition of human NCI-H226 cells at 10 uM after 48 hrs; format: functional
[3] = tested on: Escherichia coli; assay: Antimicrobial activity against Escherichia coli assessed as inhibition zone at 200 ug/disk after 24 hrs by disc-diffusion method; format: functional; details: read-out: IZ
[4] = tested on: MCF7; assay: Growth inhibition of human MCF7 cells at 10 uM after 48 hrs; format: functional
[5] = tested on: Bacillus subtilis; assay: Antimicrobial activity against Bacillus subtilis assessed as inhibition zone at 200 ug/disk after 24 hrs by disc-diffusion method; format: functional; details: read-out: IZ
[6] = tested on: UO-31; assay: Growth inhibition of human UO31 cells at 10 uM after 48 hrs; format: functional
[7] = tested on: MDA-MB-435; assay: Growth inhibition of human MDA-MB-435 cells at 10 uM after 48 hrs; format: functional
[8] = tested on: Candida albicans; assay: Antimicrobial activity against Candida albicans assessed as inhibition zone at 200 ug/disk after 24 hrs by disc-diffusion method; format: functional; details: read-out: IZ
[9] = tested on: HOP-62; assay: Growth inhibition of human HOP62 cells at 10 uM after 48 hrs; format: functional
[10] = tested on: K562; assay: Growth inhibition of human K562 cells at 10 uM after 48 hrs; format: functional
[11] = tested on: UACC-62; assay: Growth inhibition of human UACC62 cells at 10 uM after 48 hrs; format: functional
[12] = tested on: Pseudomonas aeruginosa; assay: Antimicrobial activity against Pseudomonas aeruginosa assessed as inhibition zone at 200 ug/disk after 24 hrs by disc-diffusion method; format: functional; details: read-out: IZ
[13] = target: T1, Dihydrofolate reductase (Bos taurus, UniProt P00376); assay: Inhibition of bovine liver DHFR
T1 sequence (P00376 whole entry): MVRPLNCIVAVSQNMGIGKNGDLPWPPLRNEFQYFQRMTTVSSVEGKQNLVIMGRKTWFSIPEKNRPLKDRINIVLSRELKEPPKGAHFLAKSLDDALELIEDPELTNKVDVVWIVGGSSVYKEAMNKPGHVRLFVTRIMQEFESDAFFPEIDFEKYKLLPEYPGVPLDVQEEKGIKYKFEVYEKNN

[14] = tested on: Staphylococcus aureus; assay: Antimicrobial activity against Staphylococcus aureus assessed as inhibition zone at 200 ug/disk after 24 hrs by disc-diffusion method; format: functional; details: read-out: IZ
[15] = tested on: A549; assay: Growth inhibition of human A549 cells at 10 uM after 48 hrs; format: functional
[16] = tested on: MOLT-4; assay: Growth inhibition of human MOLT4 cells at 10 uM after 48 hrs; format: functional
[17] = tested on: SR; assay: Growth inhibition of human SR cells at 10 uM after 48 hrs; format: functional
[18] = tested on: SK-MEL-28; assay: Growth inhibition of human SK-MEL-28 cells at 10 uM after 48 hrs; format: functional, cell-based
[19] = tested on: MDA-MB-231; assay: Growth inhibition of human MDA-MB-231 cells at 10 uM after 48 hrs; format: functional
[20] = tested on: Malme-3M; assay: Growth inhibition of human MALME-3M cells at 10 uM after 48 hrs; format: functional
[21] = tested on: Hs-578T; assay: Growth inhibition of human Hs 578T cells at 10 uM after 48 hrs; format: functional
[22] = tested on: NCI-H522; assay: Growth inhibition of human NCI-H522 cells at 10 uM after 48 hrs; format: functional
[23] = tested on: A498; assay: Growth inhibition of human A498 cells at 10 uM after 48 hrs; format: functional
[24] = tested on: HCT-15; assay: Growth inhibition of human HCT15 cells at 10 uM after 48 hrs; format: functional
[25] = tested on: RXF 393; assay: Growth inhibition of human RXF393 cells at 10 uM after 48 hrs; format: functional
[26] = tested on: HOP-92; assay: Growth inhibition of human HOP92 cells at 10 uM after 48 hrs; format: functional
[27] = tested on: 786-0; assay: Growth inhibition of human 786-0 cells at 10 uM after 48 hrs; format: functional
[28] = tested on: CCRF-CEM; assay: Growth inhibition of human CCRF-CEM cells at 10 uM after 48 hrs; format: functional
[29] = tested on: MDA-MB-468; assay: Growth inhibition of human MDA-MB-468 cells at 10 uM after 48 hrs; format: functional
[30] = tested on: SNB-19; assay: Growth inhibition of human SNB19 cells at 10 uM after 48 hrs; format: functional
[31] = tested on: HCT-116; assay: Growth inhibition of human HCT116 cells at 10 uM after 48 hrs; format: functional
[32] = tested on: HL-60(TB); assay: Growth inhibition of human HL-60(TB) cells at 10 uM after 48 hrs; format: functional
[33] = tested on: T47D; assay: Growth inhibition of human T47D cells at 10 uM after 48 hrs; format: functional
[34] = tested on: HT-29; assay: Growth inhibition of human HT-29 cells at 10 uM after 48 hrs; format: functional
[35] = tested on: UACC-257; assay: Growth inhibition of human UACC257 cells at 10 uM after 48 hrs; format: functional
[36] = tested on: KM12; assay: Growth inhibition of human KM12 cells at 10 uM after 48 hrs; format: functional
[37] = tested on: OVCAR-4; assay: Growth inhibition of human OVCAR4 cells at 10 uM after 48 hrs; format: functional
[38] = tested on: PC-3; assay: Growth inhibition of human PC3 cells at 10 uM after 48 hrs; format: functional
[39] = tested on: RPMI-8226; assay: Growth inhibition of human RPMI8226 cells at 10 uM after 48 hrs; format: functional
[40] = tested on: SK-MEL-5; assay: Growth inhibition of human SK-MEL-5 cells at 10 uM after 48 hrs; format: functional
[41] = tested on: SF-539; assay: Growth inhibition of human SF539 cells at 10 uM after 48 hrs; format: functional
[42] = tested on: CAKI-1; assay: Growth inhibition of human CAKI-1 cells at 10 uM after 48 hrs; format: functional
[43] = tested on: SF-295; assay: Growth inhibition of human SF295 cells at 10 uM after 48 hrs; format: functional

COc1cc2nc(Sc3nnc(N)s3)n(-c3ccc(C)cc3)c(=O)c2cc1OC
8 mm: zone of inhibition at 200 µg/disc [3] | zone of inhibition at 200 µg/disc [8] | zone of inhibition at 200 µg/disc [12]
14 mm: zone of inhibition at 200 µg/disc [14]
15 mm: zone of inhibition at 200 µg/disc [5]
inactive: growth inhibition (GI) [1] | growth inhibition (GI) [2] | growth inhibition (GI) [4] | growth inhibition (GI) [6] | growth inhibition (GI) [7] | growth inhibition (GI) [9] | growth inhibition (GI) [10] | growth inhibition (GI) [11] | growth inhibition (GI) [15] | growth inhibition (GI) [16] | growth inhibition (GI) [17] | growth inhibition (GI) [18] | growth inhibition (GI) [19] | growth inhibition (GI) [20] | growth inhibition (GI) [21] | growth inhibition (GI) [22] | growth inhibition (GI) [23] | growth inhibition (GI) [24] | growth inhibition (GI) [25] | growth inhibition (GI) [26] | growth inhibition (GI) [27] | growth inhibition (GI) [28] | growth inhibition (GI) [29] | growth inhibition (GI) [30] | growth inhibition (GI) [31] | growth inhibition (GI) [32] | growth inhibition (GI) [33] | growth inhibition (GI) [34] | growth inhibition (GI) [35] | growth inhibition (GI) [36] | growth inhibition (GI) [37] | growth inhibition (GI) [38] | growth inhibition (GI) [39] | growth inhibition (GI) [40] | growth inhibition (GI) [41] | growth inhibition (GI) [42] | growth inhibition (GI) [43]
1000 nM: IC50 [13]

Cc1ccc2nc(Sc3nnc(N)s3)n(-c3ccc(Oc4ccccc4)cc3)c(=O)c2c1
inactive: growth inhibition (GI) [1] | growth inhibition (GI) [2] | growth inhibition (GI) [4] | growth inhibition (GI) [6] | growth inhibition (GI) [7] | growth inhibition (GI) [9] | growth inhibition (GI) [10] | growth inhibition (GI) [11] | growth inhibition (GI) [15] | growth inhibition (GI) [16] | growth inhibition (GI) [17] | growth inhibition (GI) [18] | growth inhibition (GI) [19] | growth inhibition (GI) [20] | growth inhibition (GI) [21] | growth inhibition (GI) [22] | growth inhibition (GI) [23] | growth inhibition (GI) [24] | growth inhibition (GI) [25] | growth inhibition (GI) [26] | growth inhibition (GI) [27] | growth inhibition (GI) [28] | growth inhibition (GI) [29] | growth inhibition (GI) [30] | growth inhibition (GI) [31] | growth inhibition (GI) [32] | growth inhibition (GI) [33] | growth inhibition (GI) [34] | growth inhibition (GI) [35] | growth inhibition (GI) [36] | growth inhibition (GI) [37] | growth inhibition (GI) [38] | growth inhibition (GI) [39] | growth inhibition (GI) [40] | growth inhibition (GI) [41] | growth inhibition (GI) [42] | growth inhibition (GI) [43]
100 nM: IC50 [13]
8 mm: zone of inhibition at 200 µg/disc [3] | zone of inhibition at 200 µg/disc [5] | zone of inhibition at 200 µg/disc [8] | zone of inhibition at 200 µg/disc [12] | zone of inhibition at 200 µg/disc [14]

— ChEMBL document CHEMBL3352542, “Synthesis, biological evaluation and molecular modeling study of 2-(1,3,4-thiadiazolyl-thio and 4-methyl-thiazolyl-thio)-quinazolin-4-ones as a new class of DHFR inhibitors” (Bioorg Med Chem Lett, 2014)
